Laboratory results taken from patent US10660877B2 (BRISTOL-MYERS SQUIBB COMPANY, priority 2016, dated 2020).
pIC50: −log10 of the molar value.

Tests used:
[1] = molecular target: human TLR8 (Homo sapiens (Human), UniProt Q9NR97); experiment: TLR8 inhibition reporter assay (HEK-Blue cells, SEAP reporter, R848 stimulation); details: read-out: TLR8 IC50, HEK-Blue cells overexpressing human TLR8, R848 15.9 μM;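 note: compounds tested from 0.05 nM to 50 µM, 22 h at 37 °C, SEAP measured with HEK-Blue Detection, inhibition relative to agonist plus DMSO versus a known inhibitor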
Chain of human TLR8 (Q9NR97 27-1041): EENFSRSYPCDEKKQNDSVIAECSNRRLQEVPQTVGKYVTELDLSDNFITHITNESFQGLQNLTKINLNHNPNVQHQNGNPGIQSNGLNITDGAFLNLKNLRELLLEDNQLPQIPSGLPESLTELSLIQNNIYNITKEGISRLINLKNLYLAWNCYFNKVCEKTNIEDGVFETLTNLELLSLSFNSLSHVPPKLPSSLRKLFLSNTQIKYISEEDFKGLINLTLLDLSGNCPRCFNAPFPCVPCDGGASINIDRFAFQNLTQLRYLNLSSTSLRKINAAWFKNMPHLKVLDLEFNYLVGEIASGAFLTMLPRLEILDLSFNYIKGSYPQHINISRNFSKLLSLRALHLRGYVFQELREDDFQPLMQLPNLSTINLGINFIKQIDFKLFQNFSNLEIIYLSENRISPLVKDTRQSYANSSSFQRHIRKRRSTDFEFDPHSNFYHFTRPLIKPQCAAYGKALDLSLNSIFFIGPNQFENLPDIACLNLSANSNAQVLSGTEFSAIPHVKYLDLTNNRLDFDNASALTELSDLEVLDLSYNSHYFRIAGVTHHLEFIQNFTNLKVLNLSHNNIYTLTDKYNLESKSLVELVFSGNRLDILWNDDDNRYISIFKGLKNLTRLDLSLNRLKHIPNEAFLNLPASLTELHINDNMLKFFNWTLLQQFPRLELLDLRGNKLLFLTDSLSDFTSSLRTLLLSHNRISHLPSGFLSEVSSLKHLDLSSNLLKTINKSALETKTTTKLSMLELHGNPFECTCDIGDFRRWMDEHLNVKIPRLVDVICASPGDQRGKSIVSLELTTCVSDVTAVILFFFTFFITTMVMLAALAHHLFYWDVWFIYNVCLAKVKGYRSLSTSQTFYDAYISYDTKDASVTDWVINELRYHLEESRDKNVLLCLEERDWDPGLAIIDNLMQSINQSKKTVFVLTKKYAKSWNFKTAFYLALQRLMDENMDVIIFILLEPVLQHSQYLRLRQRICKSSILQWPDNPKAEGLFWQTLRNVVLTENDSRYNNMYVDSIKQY
Experimental: TLR7/8/9 Inhibition Reporter Assays
Briefly, cells are seeded into Greiner 384 well plates (15000 cells per well for TLR7, 20,000 for TLR8 and 25,000 for TLR9) and then treated with test compounds in DMSO to yield a final dose response concentration range of 0.05 nM-50 μM. […] After a 22 hour incubation at 37° C., 5% CO2, SEAP levels are determined with the addition of HEK-Blue™ Detection reagent (Invivogen), a cell culture medium that allows for detection of SEAP, according to manufacturer's specifications. The percent inhibition is determined as the % reduction in the HEK-Blue signal present in wells treated with agonist plus DMSO alone compared to wells treated with a known inhibitor.

[2] = molecular target: human TLR9 (Homo sapiens (Human), UniProt Q9NR96); experiment: TLR9 inhibition reporter assay (HEK-Blue cells, SEAP reporter, ODN2006 stimulation); details: read-out: TLR9 IC50, HEK-Blue cells overexpressing human TLR9, ODN2006 5 nM;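 note: compounds tested over 0.05 nM to 50 µM, 22 h incubation, inhibition taken as SEAP signal drop from agonist plus DMSO wells toward a known inhibitor control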
Chain of human TLR9 (Q9NR96 26-1032): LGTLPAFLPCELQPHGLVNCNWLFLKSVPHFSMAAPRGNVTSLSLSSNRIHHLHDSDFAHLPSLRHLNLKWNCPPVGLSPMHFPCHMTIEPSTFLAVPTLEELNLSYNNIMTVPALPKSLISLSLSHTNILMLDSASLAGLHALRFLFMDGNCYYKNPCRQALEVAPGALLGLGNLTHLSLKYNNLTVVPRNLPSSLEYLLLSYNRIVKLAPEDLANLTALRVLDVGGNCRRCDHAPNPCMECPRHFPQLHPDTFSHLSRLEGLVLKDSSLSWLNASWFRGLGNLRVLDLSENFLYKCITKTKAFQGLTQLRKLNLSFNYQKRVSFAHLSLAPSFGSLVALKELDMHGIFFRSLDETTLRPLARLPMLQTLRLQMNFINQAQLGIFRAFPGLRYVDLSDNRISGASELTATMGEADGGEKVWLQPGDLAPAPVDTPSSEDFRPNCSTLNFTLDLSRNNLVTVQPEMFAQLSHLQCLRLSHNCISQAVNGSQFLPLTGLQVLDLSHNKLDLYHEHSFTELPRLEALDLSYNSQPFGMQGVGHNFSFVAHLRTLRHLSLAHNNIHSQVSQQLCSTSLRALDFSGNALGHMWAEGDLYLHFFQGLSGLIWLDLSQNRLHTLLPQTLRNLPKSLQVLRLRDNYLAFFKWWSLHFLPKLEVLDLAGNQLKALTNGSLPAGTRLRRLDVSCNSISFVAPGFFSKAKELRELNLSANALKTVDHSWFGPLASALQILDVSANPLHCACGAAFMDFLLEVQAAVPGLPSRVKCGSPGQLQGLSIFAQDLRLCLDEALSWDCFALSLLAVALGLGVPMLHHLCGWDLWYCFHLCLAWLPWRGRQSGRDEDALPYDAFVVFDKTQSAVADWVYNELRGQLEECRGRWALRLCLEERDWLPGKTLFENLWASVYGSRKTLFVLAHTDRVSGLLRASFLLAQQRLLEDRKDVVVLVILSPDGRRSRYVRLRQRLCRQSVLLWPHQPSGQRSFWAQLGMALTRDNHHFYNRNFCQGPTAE

[3] = molecular target: human TLR7 (Homo sapiens (Human), UniProt Q9NYK1); experiment: TLR7 inhibition reporter assay (HEK-Blue cells, SEAP reporter, gardiquimod stimulation); assay type: cell-based; details: HEK-Blue cells overexpressing human TLR7, gardiquimod 7.5 μM
Chain of human TLR7 (Q9NYK1 27-1049): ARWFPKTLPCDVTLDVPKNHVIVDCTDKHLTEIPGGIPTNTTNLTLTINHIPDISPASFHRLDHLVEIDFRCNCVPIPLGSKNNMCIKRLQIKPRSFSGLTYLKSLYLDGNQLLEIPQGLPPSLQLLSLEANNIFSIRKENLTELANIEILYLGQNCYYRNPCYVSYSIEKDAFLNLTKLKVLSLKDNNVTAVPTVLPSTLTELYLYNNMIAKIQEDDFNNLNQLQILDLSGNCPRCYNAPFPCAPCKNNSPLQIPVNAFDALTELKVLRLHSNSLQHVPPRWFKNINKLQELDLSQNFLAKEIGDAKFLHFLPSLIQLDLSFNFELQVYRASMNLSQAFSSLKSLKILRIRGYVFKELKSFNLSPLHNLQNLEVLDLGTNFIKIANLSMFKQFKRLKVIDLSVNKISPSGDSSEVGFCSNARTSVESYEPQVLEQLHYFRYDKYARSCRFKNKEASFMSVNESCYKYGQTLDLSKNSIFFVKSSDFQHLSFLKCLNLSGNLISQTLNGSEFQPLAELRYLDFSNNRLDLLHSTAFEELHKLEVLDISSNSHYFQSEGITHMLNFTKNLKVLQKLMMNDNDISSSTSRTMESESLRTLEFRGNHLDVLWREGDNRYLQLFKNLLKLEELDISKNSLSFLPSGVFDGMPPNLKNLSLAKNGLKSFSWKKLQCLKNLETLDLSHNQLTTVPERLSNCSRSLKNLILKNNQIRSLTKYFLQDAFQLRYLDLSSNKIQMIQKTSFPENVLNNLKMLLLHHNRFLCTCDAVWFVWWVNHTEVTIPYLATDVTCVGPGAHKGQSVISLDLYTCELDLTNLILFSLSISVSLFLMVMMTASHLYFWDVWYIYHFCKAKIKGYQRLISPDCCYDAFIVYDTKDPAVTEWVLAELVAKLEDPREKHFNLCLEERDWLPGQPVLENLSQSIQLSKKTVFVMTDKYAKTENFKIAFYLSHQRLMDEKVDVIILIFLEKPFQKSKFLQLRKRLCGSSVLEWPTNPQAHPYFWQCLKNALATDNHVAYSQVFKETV

SMILES | pIC50 [1] | pIC50 [2] | pIC50 [3]
Cc1cc(-c2[nH]c3ccc(C4CC(C)(C)N(C)C(C)(C)C4)cc3c2C(C)C)cc(C)n1 [Example 496, 2-(2,6-dimethylpyridin-4-yl)-3-isopropyl-5-(1,2,2,6,6-pentamethylpiperidin-4-yl)-1H-indole] | 5.02 | < 4.30 | 5.14
Cc1cc(-c2[nH]c3ccc(C4CCN(CC(=O)N(C)C)CC4)cc3c2C(C)C)c(C)cn1 [Example 642, 2-(4-(2-(2,5-dimethylpyridin-4-yl)-3-isopropyl-1H-indol-5-yl)piperidin-1-yl)-N,N-dimethylacetamide] | 8.25 | 5.39 | 7.79
COc1cc(-c2[nH]c3ccc(C4CCN(C(=O)CN(C)C)CC4)cc3c2C(C)C)ccn1 [Example 521, 2-(dimethylamino)-1-(4-(3-isopropyl-2-(2-methoxypyridin-4-yl)-1H-indol-5-yl)piperidin-1-yl)ethan-1-one] | 6.94 | 5.43 | 7.38
Cc1cc(-c2[nH]c3ccc(C4CCN(S(=O)(=O)C5CC5)CC4)cc3c2C(C)C)ccn1 [Example 555, 5-(1-(cyclopropylsulfonyl)piperidin-4-yl)-3-isopropyl-2-(2-methylpyridin-4-yl)-1H-indole] | 7.04 | < 4.30 | 7.46
CCc1c(-c2ccnc(C)c2)[nH]c2ccc(C3CCN(C(=O)C4CC5(CCNCC5)C4)CC3)cc12 [Example 631, (4-(3-ethyl-2-(2-methylpyridin-4-yl)-1H-indol-5-yl)piperidin-1-yl)(7-azaspiro[3.5]nonan-2-yl)methanone] | 7.43 | 6.36 | 7.12
CCc1c(-c2ccnc(N)c2)[nH]c2ccc([C@@H]3CCNC[C@H]3F)cc12 [491-B] | 7.46 | 6.49 | 6.28
Cc1cc(-c2[nH]c3ccc(C4CCN(CC5CCN(C)CC5)CC4)cc3c2C(C)C)ccn1 [Example 743, 3-isopropyl-5-(1-((1-methylpiperidin-4-yl)methyl)piperidin-4-yl)-2-(2-methylpyridin-4-yl)-1H-indole] | 8.29 | 6.55 | 8.19
Cc1cc(-c2[nH]c3ccc(C4CCN(C(=O)[C@@H](N)CCCCN)CC4)cc3c2C(C)C)ccn1 [Example 579, (S)-2,6-diamino-1-(4-(3-isopropyl-2-(2-methylpyridin-4-yl)-1H-indol-5-yl)piperidin-1-yl)hexan-1-one] | 7.01 | 5.36 | 6.70
CNCCN1CCC(c2ccc3[nH]c(-c4ccnc(Cl)c4)c(C)c3c2)CC1 [Example 751, 2-(4-(2-(2-chloropyridin-4-yl)-3-methyl-1H-indol-5-yl)piperidin-1-yl)-N-methylethan-1-amine] | 7.25 | 6.49 | 6.33
Cc1cc(-c2[nH]c3ccc(C4CCN(C(=O)C5CC(=O)N(C)C5)CC4)cc3c2C(C)C)cc(C2CC2)n1 (stereo not drawn) [Example 507, 4-(4-(2-(2-cyclopropyl-6-methylpyridin-4-yl)-3-isopropyl-1H-indol-5-yl)piperidine-1-carbonyl)-1-methylpyrrolidin-2-one] | 6.46 | 4.72 | 7.28
Cc1cc(-c2[nH]c3ccc(C4CCN(S(=O)(=O)CC(F)(F)F)CC4)cc3c2C(C)C)ccn1 [Example 546, 3-isopropyl-2-(2-methylpyridin-4-yl)-5-(1-((2,2,2-trifluoroethyl)sulfonyl)piperidin-4-yl)-1H-indole] | 6.09 | < 4.30 | 6.79
Cc1cc(-c2[nH]c3ccc(C4CCN(C5CCOC5)CC4)cc3c2C(C)C)ccn1 (stereo not drawn) [Example 717, 3-isopropyl-2-(2-methylpyridin-4-yl)-5-(1-(tetrahydrofuran-3-yl)piperidin-4-yl)-1H-indole] | 8.23 | 5.80 | 7.80

Results, then the compound that gave them:

pIC50 [1] | pIC50 [2] | pIC50 [3] | SMILES
7.47 | 6.25 | 8.33 | Cc1cc(-c2[nH]c3ccc(C4CCN(C(=O)CN5CCC[C@@H]5CO)CC4)cc3c2C(C)C)cc(C)n1 [Example 412, (R)-1-(4-(2-(2,6-dimethylpyridin-4-yl)-3-isopropyl-1H-indol-5-yl)piperidin-1-yl)-2-(2-(hydroxymethyl)pyrrolidin-1-yl)ethan-1-one]
6.05 | 4.52 | 6.64 | Cc1cc(-c2[nH]c3ccc(C4CCN(CC(F)(F)F)CC4)cc3c2C(C)C)cc(C)n1 [Example 310, 2-(2,6-dimethylpyridin-4-yl)-3-isopropyl-5-(1-(2,2,2-trifluoroethyl)piperidin-4-yl)-1H-indole]
7.74 | 6.33 | 8.17 | Cc1cc(-c2[nH]c3ccc(C4CCN(C(=O)CNCC(C)(C)C)CC4)cc3c2C(C)C)cc(C)n1 [Example 337, 1-(4-(2-(2,6-dimethylpyridin-4-yl)-3-isopropyl-1H-indol-5-yl)piperidin-1-yl)-2-(neopentylamino)ethan-1-one]
6.87 | 4.52 | 7.63 | Cc1cc(-c2[nH]c3ccc(C4CCN(C(=O)Cc5cc(C)nn5C)CC4)cc3c2C(C)C)cc(C)n1 [Example 136, 2-(1,3-dimethyl-1H-pyrazol-5-yl)-1-(4-(2-(2,6-dimethylpyridin-4-yl)-3-isopropyl-1H-indol-5-yl)piperidin-1-yl)ethan-1-one]
7.29 | 6.82 | 7.80 | CCc1c(-c2cc(C)nc(C)c2)[nH]c2ccc(C3CCN(C(=O)CN(C)C)CC3)cc12 [Example 528, 2-(dimethylamino)-1-(4-(2-(2,6-dimethylpyridin-4-yl)-3-ethyl-1H-indol-5-yl)piperidin-1-yl)ethan-1-one]
7.22 | 4.40 | 8.32 | Cc1cc(-c2[nH]c3ccc(C4CCN(C(=O)c5cn(C)nc5C)CC4)cc3c2C(C)C)cc(C)n1 [Example 141, (1,3-dimethyl-1H-pyrazol-4-yl)(4-(2-(2,6-dimethylpyridin-4-yl)-3-isopropyl-1H-indol-5-yl)piperidin-1-yl)methanone]
6.94 | 4.44 | 7.69 | Cc1cc(-c2[nH]c3ccc(C4CCN(C(=O)c5cccn(C6CC6)c5=O)CC4)cc3c2C(C)C)cc(C)n1 [Example 123, 1-cyclopropyl-3-(4-(2-(2,6-dimethylpyridin-4-yl)-3-isopropyl-1H-indol-5-yl)piperidine-1-carbonyl)pyridin-2(1H)-one]
7.00 | 4.88 | 7.48 | Cc1cc(C(=O)N2CCC(c3ccc4[nH]c(-c5cc(C)nc(C)c5)c(C(C)C)c4c3)CC2)c(=O)[nH]n1 [Example 135, 4-(4-(2-(2,6-dimethylpyridin-4-yl)-3-isopropyl-1H-indol-5-yl)piperidine-1-carbonyl)-6-methylpyridazin-3 (2H)-one]
8.04 | 5.82 | 8.42 | Cc1cc(-c2[nH]c3ccc(C4CCN(CC(=O)N5CCC5)CC4)cc3c2C(C)C)cc(C)n1 [Example 227, 1-(azetidin-1-yl)-2-(4-(2-(2,6-dimethylpyridin-4-yl)-3-isopropyl-1H-indol-5-yl)piperidin-1-yl)ethan-1-one]
8.55 | 6.36 | 8.68 | Cc1cc(-c2[nH]c3ccc(C4CCN(CCO)CC4)cc3c2C(C)C)cc(C)n1 [Example 329, 2-(4-(2-(2,6-dimethylpyridin-4-yl)-3-isopropyl-1H-indol-5-yl)piperidin-1-yl)ethan-1-ol]
